Counter-ions that a name gives are not always drawn. Peptide text beside a SMILES is read from it.
Columns and labels:
[1] = tested on: primary human fibroblasts; type: cell-based; conditions: confluent primary human fibroblasts treated prior to rAAV infection; FACS at 96 hours post-infection
Description: Initial studies were performed in confluent primary human fibroblasts since dose titrations and toxicity could be quickly assessed. Selected agents were used to treat fibroblast monolayers prior to rAAV infection. rAAV transduction was assessed at 96 hours post-infection by FACS analysis, and the percentage of dead cells was simultaneously assessed by incorporation of propidium iodide.
These tripeptides are structurally related to chloroquine but have different lipid solubility and specificity for cysteine proteases (Seglen, 1983). These molecules decrease endosomal degradation of molecules by a mechanism different than altering pH.

[2] = tested on: polarized human airway epithelial cells; type: cell-based; conditions: for rAAV transduction from the apical surface: data not shown; for rAAV transduction from the basolateral surface: both ubiquitin ligase inhibitors combined, 2 mM pretreatment, 0.2 mM during infection
Description: Primary culture of human bronchial epithelia and reagents utilized. Primary human airway epithelial cells were collected by enzymatic digestion of bronchial samples from lung transplants, as previously described (Kondo et al., 1991; Zabner et al., 1996). Isolated primary airway cells were seeded at a density of 5×10^5 cells/cm^2 onto collagen-coated Millicell-HA culture inserts (Millipore Corp., Bedford, Mass.). Primary cultures were grown at the air-liquid interface for more than 2 weeks, by which time differentiation into a mucociliary epithelium occurs. The culture medium, used to feed only the basolateral side of the cells, contained 49% DMEM, 49% Ham's F12 and 2% Ultraser G (BioSepra, Cedex, France). Dimethyl Sulphoxide (DMSO), camptothecin (Camp), etoposide (Etop), aphidicolin (Aphi), hydroxyurea (HU) and genistein (Geni) were purchased from Sigma (St. Louis, Mo.). Tripeptidyl aldehyde proteasome inhibitors N-Acetyl-L-Leucyl-L-Leucyl-Norleucine (LLnL) and benzyloxycarbonyl-L-leucyl-L-leucyl-L-leucinal (Z-LLL) were purchased from Calbiochem-Novabiochem Corporation (La Jolla, Calif.). Ubiquitin ligase (E3) inhibitors were obtained from Bachem Bioscience Inc. (King of Prussia, Pa.). Anti-AAV capsid monoclonal antibody (Anti-VP1, 2 and 3) was purchased from American Research Products (Belmont, Mass.) and anti-ubiquitin antibody was purchased from Santa Cruz Biotechnology Inc. (Santa Cruz, Calif.).
Transduction of polarized airway epithelial cells and primary human fibroblasts. rAAV infection of fully differentiated bronchial cells was performed as described in Duan et al. (1998). For infections from the apical surface of the airway cells, 5 μl rAAV was mixed with 50 μl of culture media and applied directly onto the apical compartment of Millicell inserts (MOI=10,000 particles/cell). During apical infection, the basolateral side of the Millicell was continuously bathed in culture media. Gene transfer to the basal side was performed by inverting Millicell inserts and applying viral vector to the bottom of the supporting filter membrane in a 50 μl volume for 2 hours. Subsequently, Millicell inserts were returned to the upright position, in the continued presence of the original viral inoculum plus an additional 450 μl of media. For both apical and basolateral infections, rAAV containing media was removed after 24 hours and replaced with either fresh culture media (for the basal side) or exposed to air (for the apical side). To test the effect of different agents on the efficiency of AAV transduction in polarized airway cells, 1 μl of each solution was mixed with AAV prior to infection of airway epithelia. Agents were usually presented during the 24 hours AAV infection period unless indicated otherwise. Most of the agents were dissolved in DMSO except for hydroxyurea (dissolved in phosphate buffered saline), H-Leu-Ala-OH (dissolved in 0.9% glacial acetic acid) and H-His-Ala-OH (dissolved in 50% methanol). The working concentrations of the agents were as follows: 0.1 μM camptothecin, 10 μM etoposide, 5 μg/ml aphidicolin, 40 mM hydroxyurea, 50 μM genistein, 40 μM LLnL and 4 μM Z-LLL. When the ubiquitin ligase (E3) inhibitors (H-Leu-Ala-OH and H-His-Ala-OH) were used, airway cells were pretreated with a combination of both inhibitors at a final concentration of 2 mM for 60 minutes prior to infection, followed by the continued presence of inhibitor (0.2 mM) during the entire 24 hours infection period from the basolateral surface. Studies involving EGTA treatment were performed by transiently treating the apical membrane of polarized airway epithelia with 3 mM EGTA in water for 10 minutes (Duan et al., 1998). Following hypotonic EGTA treatment, cultures were washed twice with culture medium and infected with rAAV in the presence or absence of 40 μM LLnL. Human primary fibroblast cells (P4) were maintained in 10% fetal bovine serum (FBS), 1% penicillin and streptomycin, and 89% DMEM. […]

HeLa cells = test: AAV2 FLAG-Luc transduction of HeLa cells (luciferase screen); type: cell-based, human
Excerpt: A. To screen for agents that enhance rAAV transduction, any number of cells can be used. A range of concentrations of the agent to be tested can be determined based on, for instance desirable profiles of the agent, desirable toxicity profiles of the agent and/or concentration of the agents employed in vivo. The usefulness of the cell type chosen for the screen can be confirmed by testing compounds, e.g., proteasome inhibitors such as LLnL and ZLL which are known to increase rAAV transduction. For example, a AAV2 FLAG-Luc vector was employed to transduce HeLa, ferret fibroblasts, IB3 and Huh (liver) cells in the presence or absence of the proteasome inhibitor MG132. MG132 was confirmed to enhance AAV transduction in all cell types tested: HeLa cell transduction was enhanced about 500-fold at 80 μM, and 200-fold at 40 μM, MG132; ferret fibroblast cell transduction was enhanced about 200-fold at 20 μM, and 17-fold at 4 μM, MG132; IB3-1 cell transduction was enhanced about 30 to 70-fold at 20 to 80 μM MG132; and Huh-7 cell transduction was enhanced about 15-fold at 20 to 80 μM MG132. There was no difference in rAAV transduction efficiency in HeLa cells when either DMSO or ETOH was used as a vehicle for MG132. B. HeLa cells were selected to screen for additional agents that enhance rAAV transduction, although any cell strain or line; or primary cells, may be employed. […] The range of concentrations of the agents to be tested were selected based on solubility profiles, toxicity profiles and/or concentrations previously employed in vivo.
HeLa cells were infected for 2 hours with an MOI of 100 rAAV in the presence of agents, e.g., ritonavir (Norvir) (1, 10 and 100 μM), cyclosporin A (2.5, 25 and 250 μg/ml), epoxomicin (1, 10 and 50 μM), alcacinomycin A (5, 50 or 500 μM), chymostatin (1, 10 and 100 μM), bestatin (1, 10 and 100 μM), doxorubicin (adriamycin) (0.1, 1 and 10 μM), camptothecin (camptosar) (1, 10 and 100 μM), eicosapentanoic acid (1, 10 and 100 μM), tannic acid (2, 20, 200 and 2000 μM), simvastatin, prodrug (2, 20 and 200 μM), cisplatin (0.2, 2 and 20 μg/mL), and chloroquine (4, 40 and 400 μM). Forty-eight hours after infection, cells were harvested for analysis. rAAV transduction was measured by removing the media from the cell cultures, adding 100 μL reporter lysis buffer (RLB) and freezing. The supernatant was thawed and transferred to microfuge tubes, freeze thawed an additional 2 times, clarified by centrifugation for 10 minutes and then analyzed for reporter gene expression on the lumometer. Protein was determined by Bradford analysis and results were expressed as relative light units per mg protein (RLU/mg).
Based on results with doxorubicin, a small number of FDA approved anthracyclines were tested for their relative in vitro and in vivo activities on AAV transduction. HeLa cells were infected with 100 ppc AAV2FLAG-Luc for 2 hours in the presence of different anthracyclines, e.g., doxorubicin, daunarubicin (Cerubidine), epirubicin (Ellence™), and idarubicin (Idamycin®), and cells harvested 48 hours later. The anthracyclines were pharmaceutical grade, and prepared according to the manufacturer's instructions. Prior to use, the agents were diluted in sterile water to an equal mass, e.g., 0.6 μg/mL, 3 μg/mL and 6 μg/mL. For example, 3 μg/mL idamycin increased luciferase expression by over 5000-fold while doxorubin increased luciferase expression by 58-fold. Generally, the potency was as follows: idarubicin>daunarubicin>epirubicin>doxorubicin.

[3] = tested on: polarized human airway epithelial cells; conditions: hypotonic EGTA solution alone; cited from earlier work
mouse lung = test: Intranasal AAV2-Luc with anthracyclines in Balb/c mice (lung luciferase); type: in vivo; conditions: 10% HDE intranasal, day 7
Excerpt: (§1) Animals were followed for seven days post dose.
The dose of modulator was based on the Human Dose Equivalent (HDE) and is summarized below in Table 4. For intranasal dose administration, the dose was held constant at 10% of the HDE.
On the day of sacrifice, the left lung was clamped off at the level of the extrapulmonary bronchi, removed and frozen on dry ice. The left lung was homogenized and processed for luciferase expression using Promega's luciferase assay system (Madison, Wis.). Luminescence was measured using the Berthold AutoLumat LB953 instrument. Samples were normalized for total protein using Pierce's Coomassie Plus Protein Assay Reagent (Rockford, Ill.).

Balb/c mice = test: Safety of anthracyclines in Balb/c mice; type: in vivo, mouse; conditions: intranasal, 10% HDE
Excerpt: as §1
Safety endpoints included morbidity and mortality, clinical observations, body weights, gross necropsy observations and histopathology. Transduction endpoints included luciferase and GFP analysis.

## CCN(CC)CCCC(C)Nc1ccnc2cc(Cl)ccc12 (stereo not drawn) [chloroquine]
[1]
  rAAV transduction: significantly inhibited rAAV transduction

## CC[C@@]1(O)C(=O)OCc2c1cc1n(c2=O)Cc2cc3ccccc3nc2-1 [camptothecin]
[2]
  rAAV transduction from the apical surface: none of these agents facilitated rAAV transduction from the apical surface
HeLa cells; at the doses tested, MOI 100, 2 hours infection, harvest 48 hours
  increase in transduction efficiency: 15 fold
HeLa cells; dose ranges tested
  dose dependence of transduction: dose-dependent increase in transduction

## C[C@H](NC(=O)[C@@H](N)Cc1cnc[nH]1)C(=O)O [H-His-Ala-OH] (H-His-Ala-OH)
[2]
  rAAV transduction from the basolateral surface: enhanced rAAV transduction from the basolateral surface

## O=c1c(-c2ccc(O)cc2)coc2cc(O)cc(O)c12 [genistein]
[2]
  rAAV transduction from the apical surface: none of these agents facilitated rAAV transduction from the apical surface

## CC(C)C[C@H](N)C(=O)N[C@@H](C)C(=O)O [H-Leu-Ala-OH] (H-Leu-Ala-OH)
[2]
  rAAV transduction from the basolateral surface: enhanced rAAV transduction from the basolateral surface

## O=C(O)CN(CCOCCOCCN(CC(=O)O)CC(=O)O)CC(=O)O [EGTA]
[3]
  increase of AAV transduction from the apical surface: 7 to 10 fold

## Cl.N [NH4Cl]
[1]
  rAAV transduction: significantly inhibited rAAV transduction

## C[C@H]1CCC/C=C/[C@@H]2C[C@H](O)C[C@H]2[C@H](O)/C=C/C(=O)O1 [BFA, brefeldin A]
[1]
  rAAV transduction: significant enhancement of rAAV transduction

## C=C1[C@@H](C)[C@H]2[C@H](Cc3ccccc3)NC(=O)[C@]23OC(=O)/C=C/[C@H](O)CCC[C@@H](C)C/C=C/[C@H]3[C@@H]1O [cytochalasin B]
[1]
  rAAV transduction: significant decrease in rAAV transduction

## CC[C@]1(O)C[C@@H]2CN(CCc3c([nH]c4ccccc34)[C@@](C(=O)OC)(c3cc4c(cc3OC)N(C)[C@H]3[C@@](O)(C(=O)OC)[C@H](OC(C)=O)[C@]5(CC)C=CCN6CC[C@]43[C@@H]65)C2)C1 [vinblastine, vinblastine sulfate]
[1]
  rAAV transduction: little effect on rAAV transduction

## COc1cc([C@@H]2c3cc4c(cc3[C@@H](O[C@@H]3O[C@@H]5CO[C@@H](C)O[C@H]5[C@H](O)[C@H]3O)[C@H]3COC(=O)[C@H]23)OCO4)cc(OC)c1O [etoposide]
[2]
  rAAV transduction from the apical surface: none of these agents facilitated rAAV transduction from the apical surface

## CC(=O)[C@]1(O)Cc2c(O)c3c(c(O)c2[C@@H](O[C@H]2C[C@H](N)[C@H](O)[C@H](C)O2)C1)C(=O)c1ccccc1C3=O [Idamycin, idarubicin]
HeLa cells; 3 μg/mL, 100 ppc AAV2FLAG-Luc, harvest 48 hours
  increase in luciferase expression: over 5000 fold
HeLa cells; 0.6, 3 and 6 μg/mL
  order of potency among anthracyclines: idarubicin>daunarubicin>epirubicin>doxorubicin
Mouse lung; both sexes
  Fold Increase in luciferase expression: 90
  luciferase expression, Average: 5.06E+05
Mouse lung; female
  Fold Increase in luciferase expression: 57
  luciferase expression, Average: 2.02E+05
Mouse lung; male
  Fold Increase in luciferase expression: 111
  luciferase expression, Average: 8.11E+05
Balb/c mice; 7 days
  mortality and clinical observations: early mortality of some animals, ruffled hair coats and sick mice
Balb/c mice; over the week
  body weight: lost considerable body weight

## NC(=O)NO [hydroxyurea]
[2]
  rAAV transduction from the apical surface: none of these agents facilitated rAAV transduction from the apical surface

Source: patent publication US20080206198A1, “Compounds and methods for pharmico-gene therapy of epithelial sodium channel associated disorders” (priority 2003, published 2008)
